Source: US9776962B2, “Aromatic compounds with GPR40 agonistic activity” (TAKEDA PHARMACEUTICAL COMPANY LIMITED, priority 2013, dated 2017)

The compounds below were run against T1, human GPR40 (Homo sapiens, UniProt O14842) (assay: Evaluation of human GPR40 agonist activity with increase in intracellular Ca2+ concentration as an index (FLIPR)). Settings: test compound 1 μM; CHO(dhfr−) cells stably expressing human GPR40; 100% = 10 μM compound of Example 153, 0% = DMSO.
T1 construct: expressed in transfected cells
Format: cell-based
How it was run: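 CHO(dhfr−) cells stably expressing full-length human GPR40 were loaded with Ca2+ probe for 1 h at room temperature, then given test compound at 1 μM final. Fluorescence was followed on FLIPR, with activity scaled to a reference agonist at 10 μM (100%) and DMSO (0%).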

T1 sequence (O14842 whole entry): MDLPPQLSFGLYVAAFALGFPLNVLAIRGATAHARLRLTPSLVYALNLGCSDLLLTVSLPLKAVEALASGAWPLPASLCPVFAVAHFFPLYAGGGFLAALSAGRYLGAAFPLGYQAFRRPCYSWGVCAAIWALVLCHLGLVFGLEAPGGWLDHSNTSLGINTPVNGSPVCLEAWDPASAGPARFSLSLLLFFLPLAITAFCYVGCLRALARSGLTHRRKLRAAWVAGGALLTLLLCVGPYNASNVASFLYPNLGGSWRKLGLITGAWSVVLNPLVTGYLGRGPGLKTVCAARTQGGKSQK

Row | activation at 1 µM [%] | Activity (human GPR40 agonist activity) [%] | SMILES
1 | 90 |  | CCc1ccc(C(=O)N(CC(C)(C)C)c2cccc(C)n2)c(N2CCC(COc3cc(C(CC(=O)O)C4CC4)ccn3)CC2)c1 (stereo not shown) [Example 109, 3-cyclopropyl-3-(2-((1-(2-((2,2-dimethylpropyl)(6-methylpyridin-2-yl)carbamoyl)-5-ethylphenyl)piperidin-4-yl)methoxy)pyridin-4-yl)propanoic acid]
2 | 95 |  | COc1ccc(C(=O)N(CC2CC2)c2cc(C)ccn2)c(N2CCC(COc3cc(C(CC(=O)O)C4CC4)ccn3)CC2)c1 (stereo not shown) [Example 125, 3-cyclopropyl-3-(2-((1-(2-((cyclopropylmethyl)(4-methylpyridin-2-yl)carbamoyl)-5-methoxyphenyl)piperidin-4-yl)methoxy)pyridin-4-yl)propanoic acid]
3 | 110 |  | COc1ccc(C(=O)N(CC(C)(C)C)c2cccc(C)n2)c(N2CCC(COc3cccc(C(C)(C)CC(=O)O)c3)CC2)c1 [Example 277, 3-(3-((1-(2-((2,2-dimethylpropyl) (6-methylpyridin-2-yl)carbamoyl)-5-methoxyphenyl)piperidin-4-yl)methoxy)phenyl)-3-methylbutanoic acid]
4 | 94 |  | Cc1cccc(N(CC(C)(C)C)C(=O)c2ccc(Cl)cc2N2CCC(COc3cc(C(CC(=O)O)C4CC4)ccn3)CC2)n1 (stereo not shown) [Example 266, 3-(2-((1-(5-chloro-2-((2,2-dimethylpropyl)(6-methylpyridin-2-yl)carbamoyl)phenyl)piperidin-4-yl)methoxy)pyridin-4-yl)-3-cyclopropylpropanoic acid]
5 | 98 |  | COc1ccc(C(=O)N(CC(C)(C)C)c2ncccn2)c(N2CCC(COc3cc(C(CC(=O)O)C4CC4)ccn3)CC2)c1 (stereo not shown) [Example 156, 3-cyclopropyl-3-(2-((1-(2-((2,2-dimethylpropyl)(pyrimidin-2-yl)carbamoyl)-5-methoxyphenyl)piperidin-4-yl)methoxy)pyridin-4-yl)propanoic acid]
6 | 92 |  | COc1ccc(C(=O)N2CCOCC2Cc2ccccc2)c(N2CCC(COc3cc(C(CC(=O)O)C4CC4)ccn3)CC2)c1 (stereo not shown) [Example 201, 3-(2-((1-(2-((3-benzylmorpholin-4-yl)carbonyl)-5-methoxyphenyl)piperidin-4-yl)methoxy)pyridin-4-yl)-3-cyclopropylpropanoic acid]
7 | 103 |  | COc1ccc(C(=O)N(CCC(C)C)c2ccccn2)c(N2CCC(COc3cc(C(CC(=O)O)C4CC4)ccn3)CC2)c1 (stereo not shown) [Example 159, 3-cyclopropyl-3-(2-((1-(5-methoxy-2-((3-methylbutyl)(pyridin-2-yl)carbamoyl)phenyl)piperidin-4-yl)methoxy)pyridin-4-yl)propanoic acid]
8 | 104 |  | COc1ccc(C(=O)N(CC(C)(C)C)c2nc(C)cc(C)n2)c(N2CCC(COc3cc(C(CC(=O)O)C4CC4)ccn3)CC2)c1 (stereo not shown) [Example 174, 3-cyclopropyl-3-(2-((1-(2-((2,2-dimethylpropyl)(4,6-dimethylpyrimidin-2-yl)carbamoyl)-5-methoxyphenyl)piperidin-4-yl)methoxy)pyridin-4-yl)propanoic acid]
9 | 87 |  | COc1ccc(C(=O)N(CC(C)(C)C)c2cccc(C)n2)c(N2CCC(COc3cc(C(CC(=O)O)C4CC4)ccn3)CC2)c1F (stereo not shown) [Example 252, 3-cyclopropyl-3-(2-((1-(6-((2,2-dimethylpropyl)(6-methylpyridin-2-yl)carbamoyl)-2-fluoro-3-methoxyphenyl)piperidin-4-yl)methoxy)pyridin-4-yl)propanoic acid]
10 | 99 |  | COc1ccc(C(=O)N(CC(C)(C)C)c2cc(C)nc(C)n2)c(N2CCC(COc3cc(C(CC(=O)O)C4CC4)ccn3)CC2)c1 (stereo not shown) [Example 228, 3-cyclopropyl-3-(2-((1-(2-((2,2-dimethylpropyl) (2,6-dimethylpyrimidin-4-yl)carbamoyl)-5-methoxyphenyl)piperidin-4-yl)methoxy)pyridin-4-yl)propanoic acid]
11 | 99 |  | COc1ccc(C(=O)N(CC2CC2)c2cc(C)cc(C)n2)c(N2CCC(COc3cc(C(CC(=O)O)C4CC4)ccn3)CC2)c1 (stereo not shown) [Example 244, 3-cyclopropyl-3-(2-((1-(2-((cyclopropylmethyl)(4,6-dimethylpyridin-2-yl)carbamoyl)-5-methoxyphenyl)piperidin-4-yl)methoxy)pyridin-4-yl)propanoic acid]
12 | 85 |  | Cc1cccc(N(CC(C)(C)C)C(=O)c2c(F)cc(Cl)cc2N2CCC(COc3cc(C(CC(=O)O)C4CC4)ccn3)CC2)n1 (stereo not shown) [Example 265, 3-(2-((1-(5-chloro-2-((2,2-dimethylpropyl)(6-methylpyridin-2-yl)carbamoyl)-3-fluorophenyl)piperidin-4-yl)methoxy)pyridin-4-yl)-3-cyclopropylpropanoic acid]
13 | 100 |  | COc1ccc(C(=O)N(CC(F)(F)F)c2nc(C)cc(C)n2)c(N2CCC(COc3cc(C(CC(=O)O)C4CC4)ccn3)CC2)c1 (stereo not shown) [Example 168, 3-cyclopropyl-3-(2-((1-(2-((4,6-dimethylpyrimidin-2-yl)(2,2,2-trifluoroethyl)carbamoyl)-5-methoxyphenyl)piperidin-4-yl)methoxy)pyridin-4-yl)propanoic acid]
14 |  | 97 | COc1ccc(C(=O)N(CC2CC2)c2ccccn2)c(N2CCC(COc3cc(C(CC(=O)O)C4CC4)ccn3)CC2)c1 (single isomer, unassigned) [Example 142, 3-cyclopropyl-3-(2-((1-(2-((cyclopropylmethyl)(pyridin-2-yl)carbamoyl)-5-methoxyphenyl)piperidin-4-yl)methoxy)pyridin-4-yl)propanoic acid]
15 | 97 |  | COc1ccc(C(=O)N(CC(F)F)c2nccc(C)n2)c(N2CCC(COc3cc(C(CC(=O)O)C4CC4)ccn3)CC2)c1 (stereo not shown) [Example 172, 3-cyclopropyl-3-(2-((1-(2-((2,2-difluoroethyl)(4-methylpyrimidin-2-yl)carbamoyl)-5-methoxyphenyl)piperidin-4-yl)methoxy)pyridin-4-yl)propanoic acid]
16 | 78 |  | COc1ccc(C(=O)N(CC(C)(C)C)c2cccc(C)n2)c(N2CCC(COc3cccc(C4(CC(=O)O)COC4)c3)CC2)c1 [Example 278, (3-(3-((1-(2-((2,2-dimethylpropyl) (6-methylpyridin-2-yl)carbamoyl)-5-methoxyphenyl)piperidin-4-yl)methoxy)phenyl)oxetan-3-yl)acetic acid]
17 | 89 |  | COc1ccc(C(=O)N(CC(F)(F)F)c2ccnc(C)c2)c(N2CCC(COc3cc(C(CC(=O)O)C4CC4)ccn3)CC2)c1 (stereo not shown) [Example 163, 3-cyclopropyl-3-(2-((1-(5-methoxy-2-((2-methylpyridin-4-yl)(2,2,2-trifluoroethyl)carbamoyl)phenyl)piperidin-4-yl)methoxy)pyridin-4-yl)propanoic acid]
18 | 101 |  | COc1ccc(C(=O)N(CC(C)(C)C)c2ncccn2)c(N2CCC(COc3cc(C(CC(=O)O)C4CC4)c(F)cn3)CC2)c1 (stereo not shown) [Example 273, 3-cyclopropyl-3-(2-((1-(2-((2-dimethylpropyl)-(pyrimidin-2-yl)-carbamoyl)-5-methoxy-phenyl)piperidin-4-yl)-methoxy)-5-fluoropyridin-4-yl)propanoic acid]
19 | 97 |  | COc1ccc(C(=O)N(CC(C)(C)C)c2nc(C)ccc2F)c(N2CCC(COc3cc(C(CC(=O)O)C4CC4)ccn3)CC2)c1 (stereo not shown) [Example 234, 3-cyclopropyl-3-(2-((1-(2-((2,2-dimethylpropyl) (3-fluoro-6-methylpyridin-2-yl)carbamoyl)-5-methoxyphenyl)piperidin-4-yl)methoxy)pyridin-4-yl)propanoic acid]
20 | 90 |  | COc1ccc(C(=O)N(CC(F)F)c2ncccn2)c(N2CCC(COc3cc(C(CC(=O)O)C4CC4)ccn3)CC2)c1 (stereo not shown) [Example 167, 3-cyclopropyl-3-(2-((1-(2-((2,2-difluoroethyl)(pyrimidin-2-yl)carbamoyl)-5-methoxyphenyl)piperidin-4-yl)methoxy)pyridin-4-yl)propanoic acid]
21 | 84 |  | COc1ccc(C(=O)N(CC(C)(C)C#N)c2ccccn2)c(N2CCC(COc3cc(C(CC(=O)O)C4CC4)ccn3)CC2)c1 (stereo not shown) [Example 134, 3-(2-((1-(2-((2-cyano-2-methylpropyl)(pyridin-2-yl)carbamoyl)-5-methoxyphenyl)piperidin-4-yl)methoxy)pyridin-4-yl)-3-cyclopropylpropanoic acid]
22 | 101 |  | COc1ccc(C(=O)N(CC(C)(C)C)c2ccnc(C)n2)c(N2CCC(COc3cc(C(CC(=O)O)C4CC4)ccn3)CC2)c1 (stereo not shown) [Example 229, 3-cyclopropyl-3-(2-((1-(2-((2,2-dimethylpropyl) (2-methylpyrimidin-4-yl)carbamoyl)-5-methoxyphenyl)piperidin-4-yl)methoxy)pyridin-4-yl)propanoic acid]
23 | 104 |  | COc1ccc(C(=O)N(CC(C)(C)C)c2cccc(C)n2)c(N2CCC(COc3cc(C(CC(=O)O)C4CC4)c(F)cn3)CC2)c1 (stereo not shown) [Example 274, 3-cyclopropyl-3-(2-((1-(2-((2,2-dimethylpropyl)-(6-methylpyridin-2-yl)carbamoyl)-5-methoxyphenyl)piperidin-4-yl)methoxy)-5-fluoropyridin-4-yl)propanoic acid]
24 | 96 |  | COCC(C)(C)CN(C(=O)c1ccc(OC)cc1N1CCC(COc2cc(C(CC(=O)O)C3CC3)ccn2)CC1)c1ccccn1 (stereo not shown) [Example 155, 3-cyclopropyl-3-(2-((1-(5-methoxy-2-((3-methoxy-2,2-dimethylpropyl)(pyridin-2-yl)carbamoyl)phenyl)piperidin-4-yl)methoxy)pyridin-4-yl)propanoic acid]
25 | 89 |  | COc1ccc(C(=O)N2CCOCC2c2ccccc2)c(N2CCC(COc3cc(C(CC(=O)O)C4CC4)ccn3)CC2)c1 (stereo not shown) [Example 200, 3-cyclopropyl-3-(2-((1-(5-methoxy-2-((3-phenylmorpholin-4-yl)carbonyl)phenyl)piperidin-4-yl)methoxy)pyridin-4-yl)propanoic acid]
